The values below come from ChEMBL document CHEMBL1138730, “The synthesis and evaluation of [2.2.1]-bicycloazahydantoins as androgen receptor antagonists” (Bioorg Med Chem Lett, 2004).

The target in test [1] is T1, Androgen receptor (Homo sapiens, UniProt P10275).
T1 sequence (P10275 whole entry): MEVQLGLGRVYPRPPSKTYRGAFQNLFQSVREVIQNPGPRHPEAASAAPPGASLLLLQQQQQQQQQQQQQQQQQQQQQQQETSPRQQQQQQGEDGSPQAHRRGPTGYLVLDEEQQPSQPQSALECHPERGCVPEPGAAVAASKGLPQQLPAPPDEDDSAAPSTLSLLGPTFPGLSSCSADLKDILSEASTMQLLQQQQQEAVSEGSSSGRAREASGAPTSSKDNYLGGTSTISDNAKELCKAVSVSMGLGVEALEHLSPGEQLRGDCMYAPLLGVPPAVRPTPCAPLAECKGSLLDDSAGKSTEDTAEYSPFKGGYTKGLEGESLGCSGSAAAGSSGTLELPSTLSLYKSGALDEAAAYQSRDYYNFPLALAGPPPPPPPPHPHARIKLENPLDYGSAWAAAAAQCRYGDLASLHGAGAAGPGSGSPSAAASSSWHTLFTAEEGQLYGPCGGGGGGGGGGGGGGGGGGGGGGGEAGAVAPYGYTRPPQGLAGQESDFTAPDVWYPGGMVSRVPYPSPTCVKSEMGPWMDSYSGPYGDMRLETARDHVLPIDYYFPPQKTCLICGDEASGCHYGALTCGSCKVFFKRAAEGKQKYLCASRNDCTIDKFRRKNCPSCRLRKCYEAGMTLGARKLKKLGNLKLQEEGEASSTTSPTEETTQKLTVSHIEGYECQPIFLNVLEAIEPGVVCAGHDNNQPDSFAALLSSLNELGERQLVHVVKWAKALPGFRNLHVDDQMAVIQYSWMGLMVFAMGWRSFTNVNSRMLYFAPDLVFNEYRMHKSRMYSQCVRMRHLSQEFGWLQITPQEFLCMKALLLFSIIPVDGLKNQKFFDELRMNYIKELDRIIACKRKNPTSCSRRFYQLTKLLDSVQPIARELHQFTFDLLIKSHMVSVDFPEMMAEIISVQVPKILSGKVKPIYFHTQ
As to the kind of experiment: Displacement of [3H]DHT from androgen receptor of human MDA-453 cells. Background: Displacement assays read how much labelled ligand stays bound in the presence of the test substance.

In test [2] the target is T1, Androgen receptor.
Description: In vitro antagonistic activity against androgen receptor of MDA-453 cells
Test [3] concerns the target Androgen receptor (Homo sapiens, UniProt P10275). The settings on record: lncap.
Description: In vitro antagonistic activity against mutant androgen receptor of LNCap cells

As a reminder, the Ki is a dissociation constant, usually derived from enzyme kinetics or from competition with a known ligand. The term IC50 denotes the midpoint of a concentration-inhibition curve. `O=C1[C@H]2[C@H]3CC[C@H](C3)N2C(=O)N1c1ccc([N+](=O)[O-])c2ccccc12` came in with a Ki on Androgen receptor [1] of 1 nM. The IC50 on Androgen receptor [2] was 1300 nM; on Androgen receptor [3] it was more than 5000 nM.

In turn, `CC(C)(C)OC(=O)N1C[C@@H]2C[C@H]1[C@@H]1C(=O)N(c3ccc(C#N)c(C(F)(F)F)c3)C(=O)N21` returned a Ki at Androgen receptor [1] of 40 nM. Moreover, the IC50 on Androgen receptor [2] was found to be 770 nM; against Androgen receptor [3] it was 4380 nM.

Compound `CC(C)(C)OC(=O)N1C[C@@H]2C[C@H]1[C@@H]1C(=O)N(c3ccc([N+](=O)[O-])c4ccccc34)C(=O)N21` yielded a Ki on Androgen receptor [1] of 60 nM. In addition, the IC50 against Androgen receptor [2] turned out to be 3320 nM; on Androgen receptor [3] it was 4430 nM.

As for `CC(C)(C)OC(=O)N1C[C@@H]2C[C@H]1[C@]1(C)C(=O)N(c3ccc(C#N)c(C(F)(F)F)c3)C(=O)N21`, the figures for the IC50 against Androgen receptor [2] and on Androgen receptor [3] were 780 nM and 10400 nM, respectively.

Take `O=C1[C@@H]2[C@@H]3CC[C@@H](C3)[C@@H]2C(=O)N1c1ccc([N+](=O)[O-])c(C(F)(F)F)c1`: the Ki on Androgen receptor [1] came out at 5 nM. The results for the IC50 against Androgen receptor [2] and against Androgen receptor [3] were 10 nM and more than 5000 nM, respectively.

Turning to `CC(C)(C)OC(=O)N1C[C@@H]2C[C@H]1[C@H]1C(=O)N(c3ccc([N+](=O)[O-])c4ccccc34)C(=O)N21`, the values for the IC50 against Androgen receptor [2] and on Androgen receptor [3] were 1330 nM and 5860 nM, respectively.

With `CC(C)(C)OC(=O)N1C[C@H]2C[C@@H]1[C@H]1C(=O)N(c3ccc(C#N)c(C(F)(F)F)c3)C(=O)N21`, the Ki on Androgen receptor [1] is more than 5000 nM. Also, the IC50 on Androgen receptor [2] and against Androgen receptor [3] was more than 5000 nM in each case.

Consider `CC(C)(C)OC(=O)N1C[C@@H]2C[C@H]1[C@@H]1C(=O)N(c3ccc(C#N)cc3)C(=O)N21`, for which, on Androgen receptor [1], affinity was put at a Ki of 240 nM. Moreover, the IC50 is 2540 nM at Androgen receptor [2] and 4970 nM on Androgen receptor [3].

On Androgen receptor [1], `CC(C)(C)OC(=O)N1C[C@@H]2C[C@H]1[C@H]1C(=O)N(c3ccc(C#N)cc3)C(=O)N21` displayed a Ki of 190 nM. Besides, the values for the IC50 at Androgen receptor [2] and against Androgen receptor [3] were more than 5000 nM and 3510 nM, respectively.

Compound `N#Cc1ccc(N2C(=O)[C@H]3[C@@H]4C[C@@H](CN4C(=O)c4ccccc4)N3C2=O)cc1C(F)(F)F` yielded a Ki at Androgen receptor [1] of 120 nM. Moreover, the IC50 came out at 300 nM on Androgen receptor [2] and 2600 nM on Androgen receptor [3].

As to `N#Cc1ccc(N2C(=O)[C@H]3[C@@H]4C[C@@H](CN4C(=O)Oc4ccc(F)cc4)N3C2=O)cc1C(F)(F)F`, on Androgen receptor [1], the affinity corresponds to a Ki of 10 nM. Moreover, the IC50 on Androgen receptor [2] was determined as 200 nM; at Androgen receptor [3], 3920 nM.

At Androgen receptor [1], `CC(C)(C)OC(=O)N1C[C@H]2C[C@@H]1[C@H]1C(=O)N(c3ccc([N+](=O)[O-])cc3)C(=O)N21` returned a Ki of 230 nM. The IC50 at Androgen receptor [2] amounted to 250 nM; on Androgen receptor [3] it was 2390 nM.

In turn, `CCCCc1ccc(C(=O)N2C[C@@H]3C[C@H]2[C@@H]2C(=O)N(c4ccc([N+](=O)[O-])cc4)C(=O)N32)cc1` gave a Ki on Androgen receptor [1] of 70 nM. For the same compound, the values for the IC50 on Androgen receptor [2] and at Androgen receptor [3] were 60 nM and 4750 nM, respectively.

For the compound `O=C1[C@H]2[C@@H]3C[C@@H](CN3C(=O)c3ccccc3)N2C(=O)N1c1ccc([N+](=O)[O-])cc1`, the Ki on Androgen receptor [1] was determined as 10 nM. Besides, the results for the IC50 on Androgen receptor [2] and on Androgen receptor [3] were more than 5000 nM and 2540 nM, respectively.

In turn, `N#Cc1ccc(N2C(=O)[C@H]3[C@@H]4C[C@@H](CN4C(=O)Oc4ccc(F)cc4)N3C2=O)c2ccccc12` showed a Ki on Androgen receptor [1] of 40 nM. The IC50 on Androgen receptor [2] was 580 nM; at Androgen receptor [3], 1870 nM.

Turning to `CCCCc1ccc(C(=O)N2C[C@@H]3C[C@H]2[C@@H]2C(=O)N(c4ccc(C#N)cc4)C(=O)N32)cc1`, the Ki at Androgen receptor [1] stood at 100 nM. Further, the half-inhibitory concentration (IC50) stood at 580 nM against Androgen receptor [2] and 6800 nM at Androgen receptor [3].

`CC(C)(C)OC(=O)N1C[C@@H]2C[C@H]1[C@H]1C(=O)N(c3ccc(C#N)c(C(F)(F)F)c3)C(=O)N21` had a Ki at Androgen receptor [1] of 180 nM. Moreover, the figures for the IC50 against Androgen receptor [2] and at Androgen receptor [3] were 640 nM and more than 5000 nM, respectively.

As to `O=C1[C@H]2[C@@H]3C[C@@H](CN3C(=O)Oc3ccc(F)cc3)N2C(=O)N1c1ccc([N+](=O)[O-])c2ccccc12`, the affinity at Androgen receptor [1] corresponds to a Ki of 10 nM. For the same compound, the concentration for half-maximal inhibition (IC50) against Androgen receptor [2] stood at 340 nM; against Androgen receptor [3] it was 30000 nM.
